Patent US7071231B2, “Naphthalene ureas as glucose uptake enhancers” (Telik, Inc., priority 1999, dated 2006)
Where two headings read alike, the source gives them in different places.

Test system: 3T3 L1 fibroblasts
Assay: Glucose transport activity assay (14C-2-deoxy-D-glucose uptake)
Assay type: cell-based
Details: Mus musculus
Procedure: Glucose Transport Activity Assay.
Stimulation of the insulin receptor leads to the transport of glucose from the blood into cells, thus modulating blood glucose levels. 3T3 L1 fibroblasts (ATCC) were grown in Dulbecco's modified Eagle's medium (DMEM) with 10% fetal bovine serum (FBS). The cells were plated at a density of 3×10^4 cells/well in 24-well plates. Two days after confluence was reached, the cells were treated for 3 days with 0.5 mM isobutylmethylxanthine (IBMX), 1 μM dexamethasone, and 1.7 μM insulin. The cells were then transferred to DMEM with 10% FBS and supplemented with 1.7μM insulin for 2 more days. The cells were maintained in DMEM with 10% FBS for an additional 4 days. Finally the cells were serum-starved overnight in 0.1% bovine serum albumin (BSA) in DMEM.
The following day, the medium was replaced with 150 mM NaCl, 1.7 mM KCl, 0.9 mM CaCl2, K2HPO4 (pH 7.4) to which were added either the experimental compounds or their vehicle (DMSO). Insulin or its vehicle (0.01% BSA) was diluted in the assay buffer (containing test compound or vehicle, respectively) to final concentration of […]. After incubation for 30 min at 37° C., 5 μCi/ml ^14C-2-deoxy-D-glucose was added, and the incubation was continued for additional 30 min at 37° C. The cells were then washed 3 times with ice-cold PBS/20 mM glucose and lysed in 250 μl of lysis buffer (50 mM HEPES pH 7.6, 1% Triton X-100) for 30 min at room temperature. Radioactivity in the lysate was quantified by scintillation counting.
Once ^14C-2-deoxy-D-glucose is transported into the cell, it is not released. Glucose transport is, therefore, proportional to the amount of radioactivity in the lysate. The concentration of compound necessary to produce an increase in glucose transport to greater than 150% of the vehicle control (generally representing the sum of the standard deviation of the vehicle control plus the largest standard deviation of a test sample) was recorded as the EC (effective concentration). Shown in FIG. 3 is glucose uptake by cells at various concentrations when treated with Compound 13 and Compound 15.

[1] = EC (effective concentration) for increase in glucose transport, 14C-2-deoxy-D-glucose, 3T3 L1 cells, read-out: Concentration (μM) to reach >150% activity of vehicle control

Structure (SMILES): O=C(Nc1ccc2ccc(S(=O)(=O)O)cc2c1)Nc1ccc2ccc(S(=O)(=O)Nc3ccc([N+](=O)[O-])c(C(=O)O)c3)cc2c1 [Compound 37, 2-nitro-5-{[(7-{[N-(7-sulfo(2-naphthyl))carbamoyl]amino}(2-naphthyl))sulfonyl]amino}benzoic acid]
- EC (150% of vehicle control) [1]: 3.2 µM

Structure (SMILES): O=C(Nc1ccc2ccc(S(=O)(=O)Nc3ccc([N+](=O)[O-])c(C(=O)O)c3)cc2c1)Nc1ccc2ccc(S(=O)(=O)Nc3ccc([N+](=O)[O-])c(C(=O)O)c3)cc2c1 [Compound 38, 5-{[(7-{[N-(7-{[(3-carboxy-4-nitrophenyl)amino]sulfonyl}(2-naphthyl))carbamoyl]amino}(2-naphthyl))sulfonyl)amino}-2-nitrobenzoic acid]
- EC (150% of vehicle control) (3T3-L1, read-out: Concentration (μM) to reach >150% activity of vehicle control): 3.2 µM

Structure (SMILES): O=C(Nc1ccc2c(O)cc(S(=O)(=O)Nc3ccc(O)c(C(=O)O)c3)cc2c1)Nc1ccc2c(O)cc(S(=O)(=O)Nc3ccc(O)c(C(=O)O)c3)cc2c1 [Compound 43, 5-{[(7-{[N-(7-{[(3-carboxy-4-hydroxyphenyl)amino]sulfonyl}-5-hydroxy(2-naphthyl))carbamoyl]amino}-4-hydroxy(2-naphthyl))sulfonyl]amino}-2-hydroxybenzoic acid]
- EC (150% of vehicle control) [1]: 10 µM

Structure (SMILES): O=C(Nc1ccc2ccc(S(=O)(=O)Nc3ccccc3C(=O)O)cc2c1)Nc1ccc2ccc(S(=O)(=O)Nc3ccccc3C(=O)O)cc2c1 [Compound 45, 2-{[(7-{[N-(7-{[(2-carboxyphenyl)amino]sulfonyl}-2-naphthyl)carbamoyl]amino}-2-naphthyl)sulfonyl]amino}benzoic acid]
- EC (150% of vehicle control) [1]: 3.2 µM

Structure (SMILES): O=C(Nc1ccc2c(O)cc(S(=O)(=O)Nc3ccccc3C(=O)O)cc2c1)Nc1ccc2c(O)cc(S(=O)(=O)Nc3ccccc3C(=O)O)cc2c1 [Compound 47, 2-{[(7-{[N-(7-{[(2-carboxyphenyl)amino]sulfonyl}-5-hydroxy(2-naphthyl))carbamoyl]amino}-4-hydroxy-2-naphthyl)sulfonyl]amino}benzoic acid]
- EC (150% of vehicle control) [1]: 3.2 µM

Structure (SMILES): O=C(Nc1ccc2c(O)cc(S(=O)(=O)Nc3ccc(Cl)c(C(=O)O)c3)cc2c1)Nc1ccc2c(O)cc(S(=O)(=O)Nc3ccc(Cl)c(C(=O)O)c3)cc2c1 [Compound 49, 5-{[(7-{[N-(7-{[(3-carboxy-4-chlorophenyl)amino]sulfonyl}-5-hydroxy(2-naphthyl))carbamoyl]amino}-4-hydroxy(2-naphthyl))sulfonyl]amino}-2-chlorobenzoic acid]
- EC (150% of vehicle control) [1]: 3.2 µM

Structure (SMILES): COC(=O)c1cc(NS(=O)(=O)c2cc(O)c3ccc(NC(=O)Nc4ccc5c(O)cc(S(=O)(=O)Nc6cc(C(=O)OC)cc(C(=O)OC)c6)cc5c4)cc3c2)cc(C(=O)OC)c1 [Compound 50, methyl 3-({[7-({[7-({[3,5-bis(methoxycarbonyl)phenyl]amino}sulfonyl)-5-hydroxy(2-naphthyl)]amino}carbonylamino)-4-hydroxy(2-naphthyl)]sulfonyl}amino)-5-(methoxycarbonyl)benzoate]
- EC (150% of vehicle control) [1]: 3.2 µM

Structure (SMILES): O=C(Nc1ccc2c(O)cc(S(=O)(=O)Nc3cc(C(=O)O)cc(C(=O)O)c3)cc2c1)Nc1ccc2c(O)cc(S(=O)(=O)Nc3cc(C(=O)O)cc(C(=O)O)c3)cc2c1 [Compound 51, 5-{[(7-{[N-(7-{[(3,5-dicarboxyphenyl)amino]sulfonyl}-5-hydroxy(2-naphthyl))carbamoyl]amino}-4-hydroxy-2-naphthyl)sulfonyl]amino}benzene-1,3-dicarboxylic acid]
- EC (150% of vehicle control) [1]: > 32 µM

Structure (SMILES): O=C(O)Cc1cccc(NS(=O)(=O)c2cc(O)c3ccc(NC(=O)Nc4ccc5c(O)cc(S(=O)(=O)Nc6cccc(CC(=O)O)c6)cc5c4)cc3c2)c1 [Compound 52, 2-[3-({[7-({[7-({[3-(carboxymethyl)phenyl]amino}sulfonyl)-5-hydroxy(2-naphthyl)]amino}carbonylamino)-4-hydroxy-2-naphthyl]sulfonyl}amino)phenyl]acetic acid]
- EC (150% of vehicle control) [1]: 3.2 µM

Structure (SMILES): O=C(Nc1ccc2ccc(S(=O)(=O)Nc3ccc(Br)c(C(=O)O)c3)cc2c1)Nc1ccc2ccc(S(=O)(=O)Nc3ccc(Br)c(C(=O)O)c3)cc2c1 [Compound 56, 2-bromo-5-{[(7-{[N-(7-{[(4-bromo-3-carboxyphenyl)amino]sulfonyl}(2-naphthyl))carbamoyl]amino}(2-naphthyl))sulfonyl]amino}benzoic acid]
- EC (150% of vehicle control) [1]: 3.2 µM

Structure (SMILES): Cc1ccc(NS(=O)(=O)c2ccc3ccc(NC(=O)Nc4ccc5ccc(S(=O)(=O)Nc6ccc(C)c(C(=O)O)c6)cc5c4)cc3c2)cc1C(=O)O [Compound 57, 5-{[(7-{[N-(7-{[(3-carboxy-4-methylphenyl)amino]sulfonyl}(2-naphthyl))carbamoyl]amino}(2-naphthyl))sulfonyl]amino}-2-methylbenzoic acid]
- EC (150% of vehicle control) [1]: 3.2 µM

Structure (SMILES): O=C(Nc1ccc2c(O)cc(S(=O)(=O)Nc3cccc(C(=O)O)c3Cl)cc2c1)Nc1ccc2c(O)cc(S(=O)(=O)Nc3cccc(C(=O)O)c3Cl)cc2c1 [Compound 59, 3-{[(7-{[N-(7-{[(3-carboxy-2-chlorophenyl)amino]sulfonyl}-5-hydroxy(2-naphthyl))carbamoyl]amino}-4-hydroxy(2-naphthyl))sulfonyl]amino}-2-chlorobenzoic acid]
- EC (150% of vehicle control) [1]: 32 µM

Structure (SMILES): O=C(Nc1ccc2c(O)cc(S(=O)(=O)Nc3cc(C(=O)O)ccc3Cl)cc2c1)Nc1ccc2c(O)cc(S(=O)(=O)Nc3cc(C(=O)O)ccc3Cl)cc2c1 [Compound 60, 3-{[(7-{[N-(7-{[(3-carboxy-6-chlorophenyl)amino]sulfonyl}-5-hydroxy(2-naphthyl))carbamoyl]amino}-4-hydroxy(2-naphthyl))sulfonyl]amino}-4-chlorobenzoic acid]
- EC (150% of vehicle control) [1]: > 32 µM

Structure (SMILES): COc1ccc(NS(=O)(=O)c2ccc3ccc(NC(=O)Nc4ccc5ccc(S(=O)(=O)Nc6ccc(OC)c(C(=O)O)c6)cc5c4)cc3c2)cc1C(=O)O [Compound 62, 5-{[(7-{[N-(7-{[(3-carboxy-4-methoxyphenyl)amino]sulfonyl}(2-naphthyl))carbamoyl]amino}(2-naphthyl))sulfonyl]amino}-2-methoxybenzoic acid]
- EC (150% of vehicle control) [1]: 10 µM

Structure (SMILES): O=C(Nc1ccc2ccc(S(=O)(=O)Nc3cc(C(=O)O)ccc3O)cc2c1)Nc1ccc2ccc(S(=O)(=O)Nc3cc(C(=O)O)ccc3O)cc2c1 [Compound 64, 3-{[(7-{[N-(7-{[(3-carboxy-6-hydroxyphenyl)amino]sulfonyl}(2-naphthyl))carbamoyl]amino}(2-naphthyl))sulfonyl]amino}-4-hydroxybenzoic acid]
- EC (150% of vehicle control) [1]: 3.2 µM

Structure (SMILES): COC(=O)c1ccc(OC)c(NS(=O)(=O)c2ccc3ccc(NC(=O)Nc4ccc5ccc(S(=O)(=O)Nc6cc(C(=O)OC)ccc6OC)cc5c4)cc3c2)c1 [Compound 65, methyl 4-methoxy-3-({[7-({[7-({[2-methoxy-5-(methoxycarbonyl)phenyl]amino}sulfonyl)(2-naphthyl)]amino}carbonylamino)(2-naphthyl)]sulfonyl}amino)benzoate]
- EC (150% of vehicle control) [1]: > 32 µM

Structure (SMILES): COc1ccc(C(=O)O)cc1NS(=O)(=O)c1ccc2ccc(NC(=O)Nc3ccc4ccc(S(=O)(=O)Nc5cc(C(=O)O)ccc5OC)cc4c3)cc2c1 [Compound 66, 3-{[(7-{[(7-{[(3-carboxy-6-methoxyphenyl)amino]sulfonyl}(2-naphthyl))amino]carbonylamino}(2-naphthyl))sulfonyl]amino}-4-methoxybenzoic acid]
- EC (150% of vehicle control) [1]: 3.2 µM
